Tested on: Caco-2 cells

CC(C)NCC(O)COc1cccc2ccccc12 (centres unmarked) [Propranolol]
Peff A B, Range (pH 7.4 Caco-2, A to B): 18.50-36.80 × E-6 cm/sec
Peff B A, Range (pH 7.4 Caco-2, B to A): 16.30-31.40 × E-6 cm/sec
